Experimental data from patent US20250313574A1, “SIALIC ACID DERIVATIVES AND METHODS OF USING SAME” (EISAI R&D MANAGEMENT CO., LTD., priority 2022, published 2025).

Columns and labels:
[1] = molecular target: Recombinant Human Siglec-3/CD33 protein (His-CD33) (Homo sapiens (Human), UniProt P20138); assay: Differential scanning fluorimetry (DSF) thermal shift assay; type: binding
Experimental: In the DSF assay, as the temperature increases, the protein gets gradually unfolded, exposing hydrophobic regions in which a fluorescent dye binds causing the fluorescence signal to increase. The midpoint of the unfolding transitions is called the thermal melt (Tm) or denaturation temperature and the Tm was defined as the peak apex in the derivative curve. Here, the Tm temperature of CD33 in the presence and absence of A-001 at a concentration of 50 μM was examined.
Recombinant Human Siglec-3/CD33 protein was purchased from Acros (catalog no. CD3-H5226) and reagents used in this study are shown in the Table 1 below.
Lyophilized CD33 protein was received in 1 mg aliquots from Acros. The protein was diluted with 2.5 mL of sterile water to a concentration of 400 μg/mL (14.5 μM), aliquoted into 138 μL aliquots and stored as at −20° C. On the day of analysis, the protein was thawed and […] solution was diluted to […] using buffer containing 133 mM NaCl, 133 mM phosphate buffered solution and 13.9× Sypro Orange dye in water in a quantity to cover the amount of samples tested on the day of the analysis.
200 μM stock solutions of A-001 containing 0.2% DMSO in water was supplied by compound management in a 384-well plate format.
Sample matrix were prepared by adding 7.5 μL of the protein buffer stock solution followed by addition of 2.5 μL of the 200 μM compound solutions in 384-well PCR plates to give a final volume of 10 μL per well consisting of 0.5 μM CD33 protein, 100 mM phosphate buffered solution pH 7.4, 100 mM NaCl, 10× SYPRO orange dye and 50 μM compound concentration (final DMSO concentration ˜0.2%). Using the Applied Biosystems® Protein Thermal Shift software (algorithm version 1.3.), the denaturation temperature or thermal melt (Tm) of the unbound and ligand bound CD33 protein was automatically assigned and the difference in thermal melt (ΔTm D) was calculated using the derivative curve by the Protein Thermal Shift software.
Recombinant human CD33 protein (0.5 μM) was incubated under buffered conditions in the presence of SYPRO orange dye, a temperature gradient was applied and a thermogram was produced by monitoring the fluorescence. The Tm was defined as the peak apex in the derivative curve in the study. […] Addition of […] of A-001 (Blue lines) to the CD33 protein induced significant Tm increases (ΔTm D) of 12.2±0.7° C.

[2] = molecular target: Recombinant human CD33 protein (Homo sapiens (Human), UniProt P20138); assay: CD33 competitive binding assay for HTS drug screen (fluorescent multivalent sialic acid probe)
Experimental: This is a competitive binding assay that uses recombinant CD33 immobilized to a plate and a fluorescently-labeled multivalent sialic acid analog as a probe. Binding of drug to the site on CD33 to which sialic acid binds is detected by reduced binding of the fluorescent probe. Recombinant human CD33 protein (for example Acro Biosystems cat #CD3-H5257) was added at a concentration of 10 μg/ml in 20 mM acetate buffer (pH5.5) to a black plastic plate (Corning 4510) and allowed to incubate overnight at 4° C. The next day, the wells were washed 3 times with PBS containing 0.02% Tween-20. This was followed by a 30-minute incubation with PBS containing 0.2% Tween-20 and 0.5% BSA to block non-specific binding to the well. This buffer is removed and replaced with 10 μl of the same buffer, which is also used as the assay buffer. The fluorescent multivalent sialic acid probe was prepared as a 4× concentration as follows. A biotinylated sialic acid analog A-375 was mixed with biotin-4-Fluorescein isothiocyanate (biotin-4-FITC) at a 3:1 molar ratio with final concentrations (4× stock) of 60 μM A-375 and 20 μM biotin-4-FITC. After these were mixed, 20 μM of neutravidin was added, which should form complexes consisting of neutravidin, fluorescein and sialic acid with an average complex consisting of 1 neutravidin, 1 FITC and 3 sialic acid analogs. The multimerization of the sialic acid analog is critical to the assay and improves the affinity of the sialic acid analog several orders of magnitude. A test compound, for example A-001, is added at 5 μl to the 10 μl assay buffer already in the well. After a brief incubation, 5 μl of the 4× stock solution of sialic acid complexes was added. The final concentration of the complexes was therefore 5 μM neutravidin, 15 μM A-375 and 5 μM FITC. The plate was incubated at room temperature for 30 mins and then washed with PBS containing 0.2% Tween-20. Binding of the sialic acid complex is very stable, with an off-rate of several days. Bound complex was then detected using a standard plate reader to quantify FITC fluorescence.

[3] = thermal melt shift of 0.5 μM CD33 protein with 50 μM compound

Recombinant human CD33 protein, sequence (P20138 18-259): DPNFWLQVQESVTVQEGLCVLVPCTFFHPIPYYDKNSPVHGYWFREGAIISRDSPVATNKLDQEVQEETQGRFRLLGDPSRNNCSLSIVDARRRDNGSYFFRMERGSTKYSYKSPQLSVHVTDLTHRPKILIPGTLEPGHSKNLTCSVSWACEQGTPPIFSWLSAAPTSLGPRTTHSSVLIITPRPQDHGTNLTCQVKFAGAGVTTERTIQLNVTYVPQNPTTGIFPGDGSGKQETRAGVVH
Recombinant Human Siglec-3/CD33 protein (His-CD33), sequence (P20138 18-259): as above

| SMILES | DSF (dTmD) [1, 3] | EC50 [2] [nM] | DSF (dTmD) ([1]; difference in thermal melt of CD33 protein (0.5 μM) with 50 μM compound) [°C] |
| --- | --- | --- | --- |
| COC(=O)[C@@]1(CCN2CCOC[C@@]23CCN(C(=O)OC(C)(C)C)C3)C[C@H](O)[C@@H](NC(C)=O)[C@H]([C@H](O)[C@H](O)CNC(=O)c2cc(C)c(O)c(C)c2)O1 [A-002] | −0.3 |  |  |
| CC(=O)N[C@H]1[C@H]([C@H](O)[C@H](O)CNC(=O)c2cc(C)c(O)c(C)c2)O[C@@](CCN2CCOC[C@]23CCN(C(=O)OC(C)(C)C)C3)(C(=O)O)C[C@@H]1O [A-003] | 5.12 | 1140 |  |
| CC(=O)N[C@H]1[C@H]([C@H](O)[C@H](O)CNC(=O)c2cc(C)c(O)c(C)c2)O[C@@](CCN2C[C@@H](C)OC[C@@]23CCN(C(=O)OC(C)(C)C)C3)(C(=O)O)C[C@@H]1O [A-004] | 9.1 | 98 |  |
| CC(=O)N[C@H]1[C@H]([C@H](O)[C@H](O)CNC(=O)c2cc(C)c(O)c(C)c2)O[C@@](CCN2C[C@H](C)OC[C@@]23CCN(C(=O)OC(C)(C)C)C3)(C(=O)O)C[C@@H]1O [A-005] | 14.1 | 7 |  |
| CC(=O)N[C@H]1[C@H]([C@H](O)[C@H](O)CNC(=O)c2cc(C)c(O)c(C)c2)O[C@@](CCN2CCOCC2(C)CNC(=O)OC(C)(C)C)(C(=O)O)C[C@@H]1O (stereo partly drawn) [A-009] | 6.1 | 2000 |  |
| CC(=O)N[C@H]1[C@H]([C@H](O)[C@H](O)CNC(=O)c2cc(C)c(O)c(C)c2)O[C@@](CCN2CCN(C)C[C@@]23CCN(C(=O)OC(C)(C)C)C3)(C(=O)O)C[C@@H]1O [A-010] | 13.5 | 15 |  |
| CC(=O)N[C@H]1[C@H]([C@H](O)[C@H](O)CNC(=O)c2cc(C)c(O)c(C)c2)O[C@@](CCN2CCN(C)C[C@]23CCN(C(=O)OC(C)(C)C)C3)(C(=O)O)C[C@@H]1O [A-011] | 3.9 | 1630 |  |
| CC(=O)N[C@H]1[C@H]([C@H](O)[C@H](O)CNC(=O)c2cc(C)c(O)c(C)c2)O[C@@](CCN2CCNC[C@@]23CCN(C(=O)OC(C)(C)C)C3)(C(=O)O)C[C@@H]1O [A-012] | 12.6 | 22 |  |
| CC(=O)N[C@H]1[C@H]([C@H](O)[C@H](O)CNC(=O)c2cc(C)c(O)c(C)c2)O[C@@](CCN2CCNC[C@]23CCN(C(=O)OC(C)(C)C)C3)(C(=O)O)C[C@@H]1O [A-013] | 11.4 | 35 |  |
| CC(=O)N[C@H]1[C@H]([C@H](O)[C@H](O)CNC(=O)c2cc(C)c(O)c(C)c2)O[C@@](CCN2CCN(C(C)=O)C[C@@]23CCN(C(=O)OC(C)(C)C)C3)(C(=O)O)C[C@@H]1O [A-014] | 12.3 | 19 |  |
| CC(=O)N[C@H]1[C@H]([C@H](O)[C@H](O)CNC(=O)c2cc(C)c(O)c(C)c2)O[C@@](CCN2CCN(C(C)=O)C[C@]23CCN(C(=O)OC(C)(C)C)C3)(C(=O)O)C[C@@H]1O [A-015] | 3.8 | 3340 |  |
| CC(=O)N[C@H]1[C@H]([C@H](O)[C@H](O)CNC(=O)c2cc(C)c(O)c(C)c2)O[C@@](CCN2CC(=O)N(C)C[C@@]23CCN(C(=O)OC(C)(C)C)C3)(C(=O)O)C[C@@H]1O [A-016] | 9.7 | 34 |  |
| CC(=O)N[C@H]1[C@H]([C@H](O)[C@H](O)CNC(=O)c2cc(C)c(O)c(C)c2)O[C@@](CCN2CCCC23CN(C(=O)OC(C)(C)C)C3)(C(=O)O)C[C@@H]1O [A-017] | 1.2 | 1560 |  |
| CC(=O)N[C@H]1[C@H]([C@H](O)[C@H](O)CNC(=O)c2cc(C)c(O)c(C)c2)O[C@@](CCN2CCOCC2c2cccnc2)(C(=O)O)C[C@@H]1O (stereo partly drawn) [A-024] | 1.1 | 7940 |  |
| CC(=O)N[C@H]1[C@H]([C@H](O)[C@H](O)CNC(=O)c2cc(C)c(O)c(C)c2)O[C@@](CCN2C(C)CCC23CCN(C(=O)OC(C)(C)C)C3)(C(=O)O)C[C@@H]1O (stereo partly drawn) [A-025] | 10.0 | 115 |  |
| CC(=O)N[C@H]1[C@H]([C@H](O)[C@H](O)CNC(=O)c2cc(C)c(O)c(C)c2)O[C@@](CCNC2(C)CCN(C(=O)OC(C)(C)C)C2)(C(=O)O)C[C@@H]1O (stereo partly drawn) [A-026] | 9.2 | 830 |  |
| CC(=O)N[C@H]1[C@H]([C@H](O)[C@H](O)CNC(=O)c2cc(C)c(OCCN)c(C)c2)O[C@@](CCN2CCCC[C@@]23CCN(C(=O)OC(C)(C)C)C3)(C(=O)O)C[C@@H]1O [A-027] | 10.4 | 64 |  |
| CC(=O)N[C@H]1[C@H]([C@H](O)[C@H](O)CNC(=O)c2cc(C)c(O)c(C)c2)O[C@@](CCN2CCCC[C@]23CN(C(=O)OC(C)(C)C)C[C@@H]3CO)(C(=O)O)C[C@@H]1O [A-028] | 8.1 | 159 |  |

Other lines, results leading:

| DSF (dTmD) [1, 3] | EC50 [2] [nM] | DSF (dTmD) ([1]; difference in thermal melt of CD33 protein (0.5 μM) with 50 μM compound) [°C] | SMILES |
| --- | --- | --- | --- |
| 2.1 | 9730 |  | CC(=O)N[C@H]1[C@H]([C@H](O)[C@H](O)CNC(=O)c2cc(C)c(O)c(C)c2)O[C@@](CCN2CCCC[C@@]23CN(C(=O)OC(C)(C)C)C[C@H]3CO)(C(=O)O)C[C@@H]1O [A-029] |
| 8.4 | 181 |  | C=CC[C@@]1(NCC[C@]2(C(=O)O)C[C@H](O)[C@@H](NC(C)=O)[C@H]([C@H](O)[C@H](O)CNC(=O)c3cc(C)c(O)c(C)c3)O2)CCN(C(=O)OC(C)(C)C)C1 [A-032] |
| 6.1 | 1610 |  | C=CC[C@]1(NCC[C@]2(C(=O)O)C[C@H](O)[C@@H](NC(C)=O)[C@H]([C@H](O)[C@H](O)CNC(=O)c3cc(C)c(O)c(C)c3)O2)CCN(C(=O)OC(C)(C)C)C1 [A-033] |
| 6.7 | 880 |  | C=C[C@H]1CN(C(=O)OC(C)(C)C)C[C@@]1(C)NCC[C@]1(C(=O)O)C[C@H](O)[C@@H](NC(C)=O)[C@H]([C@H](O)[C@H](O)CNC(=O)c2cc(C)c(O)c(C)c2)O1 [A-034] |
| 7.4 | 413 |  | C=C[C@@H]1CN(C(=O)OC(C)(C)C)C[C@]1(C)NCC[C@]1(C(=O)O)C[C@H](O)[C@@H](NC(C)=O)[C@H]([C@H](O)[C@H](O)CNC(=O)c2cc(C)c(O)c(C)c2)O1 [A-035] |
| 12.5 | 16 |  | CC(=O)N[C@H]1[C@H]([C@H](O)[C@H](O)CNC(=O)c2cc(C)c(O)c(C)c2)O[C@@](CCN2CCOC[C@@]23CCN(c2cc(C4CC4)ccn2)C3)(C(=O)O)C[C@@H]1O [A-036] |
| 9.6 | 39 |  | CC(=O)N[C@H]1[C@H]([C@H](O)[C@H](O)CNC(=O)c2cc(C)c(O)c(C)c2)O[C@@](CCN2CCOC[C@@]23CCN(c2ccccn2)C3)(C(=O)O)C[C@@H]1O [A-037] |
| 6.3 | 363 |  | CC(=O)N[C@H]1[C@H]([C@H](O)[C@H](O)CNC(=O)c2cc(C)c(O)c(C)c2)O[C@@](CCN2CCOC[C@@]23CCN(c2cnccn2)C3)(C(=O)O)C[C@@H]1O [A-040] |
| 13.3 | 12 |  | CC(=O)N[C@H]1[C@H]([C@H](O)[C@H](O)CNC(=O)c2cc(C)c(O)c(C)c2)O[C@@](CCN2CCOC[C@@]23CCN(C(=O)NC(C)(C)C)C3)(C(=O)O)C[C@@H]1O [A-042] |
|  |  | 9.3 | CC(=O)NC1[C@H]([C@H](O)[C@H](O)CNC(=O)c2cc(C)c(O)c(C)c2)O[C@@](CC(=O)N2CCOC[C@]23CCN(C(=O)OC(C)(C)C)C3)(C(=O)O)C[C@@H]1O (stereo partly drawn) [A-222] |
